Measurements published in patent US9566312B2, “Cyclic peptides and use as medicines” (priority 2012, dated 2017).
pIC50: −log10 of the molar value. Read-outs that look alike come from different tables or passages of the source. Starred links: 1 amine or outer side, 2 acyl side, 3 side chain; linkers in the order of their positions; H or OH if unused. Non-standard residues stand in square brackets, D forms with d. Residues, ends and D or L forms follow the SMILES beside them. X27 = C[C@H](COCC(=O)N1CCN(C2CCOCC2)CC1)[C@@H](C(=O)[*:2])N(C)[*:1]; X75 = C[C@H](CCC(C)(C)OC(=O)N1CCN(C)CC1)[C@@H](C(=O)[*:2])N(C)[*:1]; X37 = C[C@H](CN1CCC(S(C)(=O)=O)CC1)[C@@H](C(=O)[*:2])N(C)[*:1]; X33 = CC(C)N1CCOC(COC[C@@H](C)[C@@H](C(=O)[*:2])N(C)[*:1])C1; X38 = C[C@@H](CN1CCN2C(=O)OCC2C1)[C@@H](C(=O)[*:2])N(C)[*:1]; X49 = C[C@H](CCC(=O)N1CCN(C)CC1)[C@@H](C(=O)[*:2])N(C)[*:1]; X62 = COCCN1CCN(CCC[C@@H](C)[C@@H](C(=O)[*:2])N(C)[*:1])CC1; X72 = C[C@H](CCN1CCN(C2CCC2)CC1)[C@@H](C(=O)[*:2])N(C)[*:1]; X43 = COCCN(C)C[C@@H](C)[C@@H](C(=O)[*:2])N(C)[*:1]; MeBmt = C/C=C/C[C@@H](C)[C@@H](O)[C@H](NC)C(=O)O; NMeL = CN[C@@H](CC(C)C)C(=O)O; NMeV = CN[C@H](C(=O)O)C(C)C; dNMeA = CN[C@H](C)C(=O)O; Abu = CC[C@H](N)C(=O)O

Key:
[1] = molecular target: organic anion transporting polypeptide 1B1 (OATP1B1) (Homo sapiens (Human), UniProt Q9Y6L6); experiment: OATP assay in CHO-OATP1B1 cells;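 note: inhibition of probe substrate uptake into the cells, ten minutes exposure, accumulated substrate read by fluorescence once cells were lysed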
Sequence of organic anion transporting polypeptide 1B1 (OATP1B1) (Q9Y6L6 whole entry): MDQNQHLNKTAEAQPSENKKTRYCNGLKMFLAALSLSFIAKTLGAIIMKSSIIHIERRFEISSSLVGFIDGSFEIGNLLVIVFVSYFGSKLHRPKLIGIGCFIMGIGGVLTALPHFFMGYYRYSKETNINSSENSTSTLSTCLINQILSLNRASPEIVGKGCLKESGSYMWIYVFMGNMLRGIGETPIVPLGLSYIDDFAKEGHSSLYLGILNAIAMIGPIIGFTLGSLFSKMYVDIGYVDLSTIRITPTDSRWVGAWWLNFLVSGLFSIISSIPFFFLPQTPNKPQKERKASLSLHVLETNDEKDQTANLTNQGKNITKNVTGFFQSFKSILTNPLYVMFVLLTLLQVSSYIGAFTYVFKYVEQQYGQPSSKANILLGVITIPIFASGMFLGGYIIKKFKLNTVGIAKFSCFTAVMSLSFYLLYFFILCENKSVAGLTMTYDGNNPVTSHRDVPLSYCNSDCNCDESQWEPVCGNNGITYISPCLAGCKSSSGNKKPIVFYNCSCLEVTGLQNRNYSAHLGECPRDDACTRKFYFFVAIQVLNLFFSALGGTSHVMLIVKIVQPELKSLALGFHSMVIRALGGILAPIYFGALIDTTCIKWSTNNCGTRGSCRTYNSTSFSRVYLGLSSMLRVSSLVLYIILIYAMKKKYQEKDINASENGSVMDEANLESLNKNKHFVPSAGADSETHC

cyclophilin B (CypB) = cyclophilin B (CypB) (Homo sapiens (Human), UniProt P23284); experiment: Inhibitor binding to cyclophilin proteins by SPR, CypB; design: unit not given here; conditions: 1:1 binding model
Sequence of cyclophilin B (CypB) (P23284 34-216): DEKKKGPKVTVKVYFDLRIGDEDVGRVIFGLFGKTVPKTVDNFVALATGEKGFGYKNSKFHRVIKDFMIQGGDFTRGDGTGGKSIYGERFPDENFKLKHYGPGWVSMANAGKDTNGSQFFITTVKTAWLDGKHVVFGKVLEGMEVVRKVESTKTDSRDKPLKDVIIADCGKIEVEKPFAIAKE
Summary of the method: (§1)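 Running buffer: 10 mM HEPES pH 7.4, 150 mM NaCl, 0.05% P20, 3% DMSO, with compound present. Capture of avi-tagged mono-biotinylated cyclophilin; single-cycle series, 1 min contact, 10 min dissociation. Rates and affinity fitted to a 1:1 interaction model.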

[2] = system: genotype 1b subgenomic HCV replicon in Huh7.5 cells; format: cell-based, hepatitis C virus; conditions: read-out: RPLN-1b IC50
Summary of the method: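 Replicon inhibition read as renilla luciferase signal versus DMSO controls after 72 h incubation, in Huh7.5 cells harbouring a genotype 1b subgenomic replicon; medium phenol red-free DMEM lacking G418. CC50 determined in parallel via Cell Titer-Glo.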

CypF = CypF (Homo sapiens (Human), UniProt P30405); experiment: Inhibitor binding to cyclophilin proteins by SPR, CypF; conditions: 1:1 binding model
Sequence of CypF (P30405 30-207): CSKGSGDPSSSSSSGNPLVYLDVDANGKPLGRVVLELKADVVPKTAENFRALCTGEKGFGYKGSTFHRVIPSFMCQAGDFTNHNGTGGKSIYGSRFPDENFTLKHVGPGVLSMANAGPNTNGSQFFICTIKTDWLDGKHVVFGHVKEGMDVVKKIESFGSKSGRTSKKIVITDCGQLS
Summary of the method: as §1

cyclophilin A (CypA) = cyclophilin A (CypA) (Homo sapiens (Human), UniProt P62937); experiment: Inhibitor binding to cyclophilin proteins by SPR, CypA; design: unit not given here; conditions: 1:1 binding model;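 note: Single-cycle kinetics on a Biacore T200, compound injected at several concentrations for 1 min each at 50 µL/min, then 10 min dissociation, in HEPES pH 7.4 buffer with 3% DMSO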
Sequence of cyclophilin A (CypA) (P62937 whole entry): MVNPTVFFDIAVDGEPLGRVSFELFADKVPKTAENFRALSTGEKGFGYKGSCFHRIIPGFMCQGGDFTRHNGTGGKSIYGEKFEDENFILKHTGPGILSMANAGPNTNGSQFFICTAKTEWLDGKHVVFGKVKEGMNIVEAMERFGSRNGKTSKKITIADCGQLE

[3] = system: peripheral blood mononuclear cells (PBMC); experiment: Anti-proliferative or immunosuppressive activity, BrdU incorporation in PHA-stimulated PBMC; format: cell-based; conditions: PHA 3 μg/ml, 60 hour compound treatment; read-out: EMV PBMC IC50
Summary of the method: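 BrdU ELISA read-out of DNA synthesis in freshly isolated PBMCs (two donors, 30,000 cells/well, X-VIVO 15). T-cell proliferation triggered with phytohemagglutinin at 3 μg/ml.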

[4] = genotype 1b replicon, 72 h incubation

Row | Compound | pIC50 [1] | CypB Kd (cyclophilin B (CypB)) | pIC50 [2, 4] | CypF Kd (CypF) [nM] | CypA Kd (cyclophilin A (CypA)) | pIC50 [3] | pIC50 [2]
1 | C/C=C/C[C@@H](C)[C@@H](O)[C@H]1C(=O)N[C@@H](CC)C(=O)N(C)[C@H](C)C(=O)N(C)[C@@H]([C@H](C)COCC2CN(C(C)C)CCO2)C(=O)N[C@@H](C(C)C)C(=O)N(C)[C@@H](CC(C)C)C(=O)N[C@@H](C)C(=O)N[C@H](C)C(=O)N(C)[C@@H](CC(C)C)C(=O)N(C)[C@@H](CC(C)C)C(=O)N(C)[C@@H](C(C)C)C(=O)N1C (stereo partly drawn) [Compound 2.20.2, 3-[D-Ala]-4-[(2S,3S)-4-(((S)-4-isopropylmorpholin-2-yl)methoxy)-3-methyl-2-(methylamino)butanoyl]-cyclosporin] (cyclo(A[dA][NMeL][NMeL][NMeV][MeBmt][Abu][dNMeA][X33]V[NMeL])) | 5.37 | 0.5 | 7.36 | 0.3 | 0.6 | 5.19 | 
2 | C/C=C/C[C@@H](C)[C@@H](O)[C@H]1C(=O)N[C@@H](CC)C(=O)N(C)[C@H](C)C(=O)N(C)[C@@H]([C@H](C)CCC(C)(C)OC(=O)N2CCN(C)CC2)C(=O)N[C@@H](C(C)C)C(=O)N(C)[C@@H](CC(C)C)C(=O)N[C@@H](C)C(=O)N[C@H](C)C(=O)N(C)[C@@H](CC(C)C)C(=O)N(C)[C@@H](CC(C)C)C(=O)N(C)[C@@H](C(C)C)C(=O)N1C [Compound 2.12.2, 3-[D-Ala]-4-[(2S,3R)-3,6-dimethyl-2-(methylamino)-6-((4-methylpiperazine-1-carbonyl)oxy)heptanoyl]-cyclosporin] (cyclo(A[dA][NMeL][NMeL][NMeV][MeBmt][Abu][dNMeA][X75]V[NMeL])) | 5.33 | 6.8 | 6.74 | 10 | 22 | 4.94 | 
3 | C/C=C/C[C@@H](C)[C@@H](O)[C@H]1C(=O)N[C@@H](CC)C(=O)N(C)[C@H](C)C(=O)N(C)[C@@H]([C@H](C)CN2CCC(S(C)(=O)=O)CC2)C(=O)N[C@@H](C(C)C)C(=O)N(C)[C@@H](CC(C)C)C(=O)N[C@@H](C)C(=O)N[C@H](C)C(=O)N(C)[C@@H](CC(C)C)C(=O)N(C)[C@@H](CC(C)C)C(=O)N(C)[C@@H](C(C)C)C(=O)N1C [Compound 2.5.20, 3-[D-Ala]-4-[(2S,3R)-3-methyl-2-(methylamino)-4-(4-(methylsulfonyl)piperidin-1-yl)butanoyl]-cyclosporin] (cyclo(A[dA][NMeL][NMeL][NMeV][MeBmt][Abu][dNMeA][X37]V[NMeL])) | 5.74 | 1.2 | 6.96 | 1.6 | 3.7 | 4.53 | 
4 | C/C=C/C[C@@H](C)[C@@H](O)[C@H]1C(=O)N[C@@H](CC)C(=O)N(C)[C@H](C)C(=O)N(C)[C@@H]([C@H](C)COCC(=O)N2CCN(C3CCOCC3)CC2)C(=O)N[C@@H](C(C)C)C(=O)N(C)[C@@H](CC(C)C)C(=O)N[C@@H](C)C(=O)N[C@H](C)C(=O)N(C)[C@@H](CC(C)C)C(=O)N(C)[C@@H](CC(C)C)C(=O)N(C)[C@@H](C(C)C)C(=O)N1C [Compound 2.6.2, 3-[D-Ala]-4-[(2S,3S)-4-(2-(4-cyclohexylpiperazin-1-yl)-2-oxoethoxy)-3-methyl-2-(methylamino)butanoyl]-cyclosporin] (cyclo([MeBmt][Abu][dNMeA][X27]V[NMeL]A[dA][NMeL][NMeL][NMeV])) | 5.46 | 0.7 |  | 0.6 | 1.3 | 4.76 | 6.85
5 | C/C=C/C[C@@H](C)[C@@H](O)[C@H]1C(=O)N[C@@H](CC)C(=O)N(C)[C@H](C)C(=O)N(C)[C@@H]([C@H](C)CCCN2CCN(CCOC)CC2)C(=O)N[C@@H](C(C)C)C(=O)N(C)[C@@H](CC(C)C)C(=O)N[C@@H](C)C(=O)N[C@H](C)C(=O)N(C)[C@@H](CC(C)C)C(=O)N(C)[C@@H](CC(C)C)C(=O)N(C)[C@@H](C(C)C)C(=O)N1C [Compound 2.19.6, 3-[D-Ala]-4-[(2S,3R)-6-(4-(2-methoxyethyl)piperazin-1-yl)-3-methyl-2-(methylamino)hexanoyl]-cyclosporin] (cyclo(A[dA][NMeL][NMeL][NMeV][MeBmt][Abu][dNMeA][X62]V[NMeL])) | 5.66 | 0.7 | 6.96 | 0.5 | 0.7 | 5.80 | 
6 | C/C=C/C[C@@H](C)[C@@H](O)[C@H]1C(=O)N[C@@H](CC)C(=O)N(C)[C@H](C(C)C)C(=O)N(C)C([C@H](C)COC)C(=O)N[C@@H](C(C)C)C(=O)N(C)[C@@H](CC(C)C)C(=O)N[C@@H](C)C(=O)N[C@H](C)C(=O)N(C)[C@@H](CC(C)C)C(=O)N(C)[C@@H](CC(C)C)C(=O)N(C)[C@@H](C(C)C)C(=O)N1C (stereo in doubt) [Compound 3.3, 3-[(R)-3-methyl-2-(methylamino)butanoyl]-4-[(2S,3S)-4-methoxy-3-methyl-2-(methylamino)butanoyl]-cyclosporin] | 5.70 | 7.4 |  | 8.2 | 13.7 | 4.88 | 7.00
7 | C/C=C/C[C@@H](C)[C@@H](O)[C@H]1C(=O)N[C@@H](CC)C(=O)N(C)[C@H](C)C(=O)N(C)[C@@H]([C@H](C)CCCN2CCC(OC)CC2)C(=O)N[C@@H](C(C)C)C(=O)N(C)[C@@H](CC(C)C)C(=O)N[C@@H](C)C(=O)N[C@H](C)C(=O)N(C)[C@@H](CC(C)C)C(=O)N(C)[C@@H](CC(C)C)C(=O)N(C)[C@@H](C(C)C)C(=O)N1C (stereo in doubt) [Compound 2.19.5, 3-[D-Ala]-4-[(2S,3R)-6-(4-methoxypiperidin-1-yl)-3-methyl-2-(methylamino)hexanoyl]-cyclosporin] | 5.37 | 0.5 | 7.10 | 0.4 | 0.7 | 5.05 | 
8 | C/C=C/C[C@@H](C)[C@@H](O)[C@H]1C(=O)N[C@@H](CC)C(=O)N(C)[C@H](C)C(=O)N(C)[C@@H]([C@H](C)CN(C)CCOC)C(=O)N[C@@H](C(C)C)C(=O)N(C)[C@@H](CC(C)C)C(=O)N[C@@H](C)C(=O)N[C@H](C)C(=O)N(C)[C@@H](CC(C)C)C(=O)N(C)[C@@H](CC(C)C)C(=O)N(C)[C@@H](C(C)C)C(=O)N1C [Compound 2.5.22, 3-[D-Ala]-4-[(2S,3R)-4-((2-methoxyethyl)(methyl)amino)-3-methyl-2-(methylamino)butanoyl]-cyclosporin] (cyclo(A[dA][NMeL][NMeL][NMeV][MeBmt][Abu][dNMeA][X43]V[NMeL])) | 5.72 | 0.9 | 7.39 | 0.9 | 1.7 | 5.05 | 
9 | C/C=C/C[C@@H](C)[C@@H](O)[C@H]1C(=O)N[C@@H](CC)C(=O)N(C)[C@H](C)C(=O)N(C)[C@@H]([C@H](C)CCC(=O)N2CCN(C)CC2)C(=O)N[C@@H](C(C)C)C(=O)N(C)[C@@H](CC(C)C)C(=O)N[C@@H](C)C(=O)N[C@H](C)C(=O)N(C)[C@@H](CC(C)C)C(=O)N(C)[C@@H](CC(C)C)C(=O)N(C)[C@@H](C(C)C)C(=O)N1C [Compound 2.14.3, 3-[D-Ala]-4-[(2S,3R)-3-methyl-2-(methylamino)-6-(4-methylpiperazin-1-yl)-6-oxohexanoyl]-cyclosporin] (cyclo(A[dA][NMeL][NMeL][NMeV][MeBmt][Abu][dNMeA][X49]V[NMeL])) | 5.27 | 0.9 | 6.72 | 0.9 | 2.0 | 4.85 | 
10 | C/C=C/C[C@@H](C)[C@@H](O)[C@H]1C(=O)N[C@@H](CC)C(=O)N(C)[C@H](C)C(=O)N(C)[C@@H]([C@H](C)CCN2CCN(C3CCC3)CC2)C(=O)N[C@@H](C(C)C)C(=O)N(C)[C@@H](CC(C)C)C(=O)N[C@@H](C)C(=O)N[C@H](C)C(=O)N(C)[C@@H](CC(C)C)C(=O)N(C)[C@@H](CC(C)C)C(=O)N(C)[C@@H](C(C)C)C(=O)N1C [Compound 2.18.10, 3-[D-Ala]-4-[(2S,3R)-5-(4-cyclobutylpiperazin-1-yl)-3-methyl-2-(methylamino)pentanoyl]-cyclosporin] (cyclo(A[dA][NMeL][NMeL][NMeV][MeBmt][Abu][dNMeA][X72]V[NMeL])) | 5.68 | 1.1 | 7.02 | 0.7 | 1.5 | 5.80 | 
11 | C/C=C/C[C@@H](C)[C@@H](O)[C@H]1C(=O)N[C@@H](CC)C(=O)N(C)[C@H](C)C(=O)N(C)[C@@H]([C@@H](C)CN2CCN3C(=O)OCC3C2)C(=O)N[C@@H](C(C)C)C(=O)N(C)[C@@H](CC(C)C)C(=O)N[C@@H](C)C(=O)N[C@H](C)C(=O)N(C)[C@@H](CC(C)C)C(=O)N(C)[C@@H](CC(C)C)C(=O)N(C)[C@@H](C(C)C)C(=O)N1C (stereo partly drawn) [Compound 2.17.10, 3-[D-Ala]-4-[(2S,3S)-3-methyl-2-(methylamino)-4-((S)-3-oxotetrahydro-1H-oxazolo[3,4-a]pyrazin-7(3H)-yl)butanoyl]-cyclosporin] (cyclo(A[dA][NMeL][NMeL][NMeV][MeBmt][Abu][dNMeA][X38]V[NMeL])) | 5.85 | 0.5 | 7.51 | 0.4 | 0.6 | 4.82 | 
